Target: CDK4 (Homo sapiens, UniProt P11802+Q16531)
Experiment: CDK4 percentage degradation in Calu-1 cells (Table 6)
Type: cell-based
Set-up: Cells that express cyclin D1-3 and CDK4/6 proteins were treated with heterobifunctional compounds; endogenous in cells; host or cells: Calu-1
Settings: 16 hours; for inhibition at 0.04 µM: 40 nM; for inhibition at 0.2 µM: 200 nM
Method in brief: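 Percentage degradation of Cyclin D1 and CDK4 derived from densitometry of ECL Western blots on lysates of Calu-1 cells. Treatment was 16 h with compound at either 40 nM or 200 nM.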

Sequence of CDK4 (P11802 2-303 limits assumed): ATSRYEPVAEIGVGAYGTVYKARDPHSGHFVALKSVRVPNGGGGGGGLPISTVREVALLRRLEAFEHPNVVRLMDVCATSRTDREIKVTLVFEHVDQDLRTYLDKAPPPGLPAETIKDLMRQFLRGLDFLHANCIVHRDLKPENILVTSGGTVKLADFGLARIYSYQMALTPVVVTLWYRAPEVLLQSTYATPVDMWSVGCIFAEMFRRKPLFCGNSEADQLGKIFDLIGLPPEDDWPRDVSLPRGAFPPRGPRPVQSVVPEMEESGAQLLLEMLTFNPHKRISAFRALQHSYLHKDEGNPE
Sequence of CDK4 (P24385 whole entry partner): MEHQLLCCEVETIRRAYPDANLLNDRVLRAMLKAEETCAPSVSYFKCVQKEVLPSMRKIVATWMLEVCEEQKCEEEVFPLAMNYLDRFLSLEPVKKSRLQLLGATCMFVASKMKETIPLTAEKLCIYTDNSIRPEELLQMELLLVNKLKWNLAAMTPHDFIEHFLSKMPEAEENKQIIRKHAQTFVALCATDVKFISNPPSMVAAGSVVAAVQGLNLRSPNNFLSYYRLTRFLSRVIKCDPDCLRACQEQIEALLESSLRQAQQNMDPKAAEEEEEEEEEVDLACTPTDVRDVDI
Sequence of CDK4 (Q16531 2-1140 limits assumed): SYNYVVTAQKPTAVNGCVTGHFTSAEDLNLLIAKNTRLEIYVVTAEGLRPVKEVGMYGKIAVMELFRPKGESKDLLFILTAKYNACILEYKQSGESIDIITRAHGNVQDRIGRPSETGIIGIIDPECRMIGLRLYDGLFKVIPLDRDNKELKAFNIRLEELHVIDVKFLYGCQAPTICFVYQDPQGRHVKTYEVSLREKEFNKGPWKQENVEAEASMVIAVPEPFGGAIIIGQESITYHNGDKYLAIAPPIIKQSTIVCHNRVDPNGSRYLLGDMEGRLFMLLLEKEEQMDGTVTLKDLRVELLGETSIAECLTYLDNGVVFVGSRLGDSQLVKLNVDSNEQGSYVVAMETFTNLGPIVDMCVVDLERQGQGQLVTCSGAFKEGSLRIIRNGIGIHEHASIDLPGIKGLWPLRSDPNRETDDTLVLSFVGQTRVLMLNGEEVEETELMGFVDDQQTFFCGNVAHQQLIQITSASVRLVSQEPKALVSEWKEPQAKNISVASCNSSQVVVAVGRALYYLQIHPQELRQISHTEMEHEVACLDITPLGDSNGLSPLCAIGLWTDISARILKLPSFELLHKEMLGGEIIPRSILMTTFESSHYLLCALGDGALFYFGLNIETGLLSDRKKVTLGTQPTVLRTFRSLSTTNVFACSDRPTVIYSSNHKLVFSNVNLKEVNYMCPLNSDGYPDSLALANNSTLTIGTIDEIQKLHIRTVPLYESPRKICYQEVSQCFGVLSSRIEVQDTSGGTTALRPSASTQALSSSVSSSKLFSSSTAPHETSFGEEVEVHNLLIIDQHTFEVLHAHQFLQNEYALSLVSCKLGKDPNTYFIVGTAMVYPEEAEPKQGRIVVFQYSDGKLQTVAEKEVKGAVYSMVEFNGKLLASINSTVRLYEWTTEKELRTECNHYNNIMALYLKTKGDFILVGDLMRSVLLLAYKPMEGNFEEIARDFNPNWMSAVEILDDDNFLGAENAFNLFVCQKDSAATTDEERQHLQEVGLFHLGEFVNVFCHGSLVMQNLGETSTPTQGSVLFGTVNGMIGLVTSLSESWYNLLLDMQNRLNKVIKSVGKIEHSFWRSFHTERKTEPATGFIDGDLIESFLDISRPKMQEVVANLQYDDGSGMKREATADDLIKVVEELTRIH

inhibition at 0.04 µM [%]	inhibition at 0.2 µM [%]	Compound
30 to 50	50 to 80	CNc1ccc(C(=O)Nc2ccc(N(C)C)nn2)c(NC2CC3(CC(CC(=O)N4CCN(c5ccc(Nc6ncc7c(C)c(C(C)=O)c(=O)n(C8CCCC8)c7n6)nc5)CC4)C3)C2)n1 (centres unmarked) [CPD-147, 2-((6-(2-(4-(6-((6-acetyl-8-cyclopentyl-5-methyl-7-oxo-7,8-dihydropyrido[2,3-d]pyrimidin-2-yl)amino)pyridin-3-yl)piperazin-1-yl)-2-oxoethyl)spiro[3.3]heptan-2-yl)amino)-N-(6-(dimethylamino)pyridazin-3-yl)-6-(methylamino)nicotinamide]
50 to 80	> 80	CNc1ccc(C(=O)Nc2ccc(N(C)C)nn2)c(NC2CC(CC(=O)N3CCN(c4ccc(Nc5ncc6c(C)c(C(C)=O)c(=O)n(C7CCCC7)c6n5)nc4)CC3)C2)n1 (centres unmarked) [CPD-148, 2-((3-(2-(4-(6-((6-acetyl-8-cyclopentyl-5-methyl-7-oxo-7,8-dihydropyrido[2,3-d]pyrimidin-2-yl)amino)pyridin-3-yl)piperazin-1-yl)-2-oxoethyl)cyclobutyl)amino)-N-(6-(dimethylamino)pyridazin-3-yl)-6-(methylamino)nicotinamide]
30 to 50	50 to 80	CNc1ccc(C(=O)Nc2ccc(N(C)C)nn2)c(NC2CC(NC(=O)CN3CCN(c4ccc(Nc5ncc6c(C)c(C(C)=O)c(=O)n(C7CCCC7)c6n5)nc4)CC3)C2)n1 (centres unmarked) [CPD-149, 2-((3-(2-(4-(6-((6-acetyl-8-cyclopentyl-5-methyl-7-oxo-7,8-dihydropyrido[2,3-d]pyrimidin-2-yl)amino)pyridin-3-yl)piperazin-1-yl)acetamido)cyclobutyl)amino)-N-(6-(dimethylamino)pyridazin-3-yl)-6-(methylamino)nicotinamide]
50 to 80	> 80	CNc1ccc(C(=O)Nc2ccc(N(C)C)nn2)c(NC2CC(NC(=O)N3CCN(c4ccc(Nc5ncc6c(C)c(C(C)=O)c(=O)n(C7CCCC7)c6n5)nc4)CC3)C2)n1 (centres unmarked) [CPD-151, 4-(6-((6-acetyl-8-cyclopentyl-5-methyl-7-oxo-7,8-dihydropyrido[2,3-d]pyrimidin-2-yl)amino)pyridin-3-yl)-N-(3-((3-((6-(dimethylamino)pyridazin-3-yl)carbamoyl)-6-(methylamino)pyridin-2-yl)amino)cyclobutyl)piperazine-1-carboxamide]
30 to 50	50 to 80	CNc1ccc(C(=O)Nc2cn(C)cn2)c(NC2CC3(CC(NC(=O)CN4CCN(c5ccc(Nc6ncc7c(C)c(C(C)=O)c(=O)n(C8CCCC8)c7n6)nc5)CC4)C3)C2)n1 (centres unmarked) [CPD-152, 2-((6-(2-(4-(6-((6-acetyl-8-cyclopentyl-5-methyl-7-oxo-7,8-dihydropyrido[2,3-d]pyrimidin-2-yl)amino)pyridin-3-yl)piperazin-1-yl)acetamido)spiro[3.3]heptan-2-yl)amino)-N-(1-methyl-1H-imidazol-4-yl)-6-(methylamino)nicotinamide]
< 30	< 30	CNc1ccc(C(=O)Nc2ccnn2C)c(NC2CC3(CC(NC(=O)CN4CCN(c5ccc(Nc6ncc7c(C)c(C(C)=O)c(=O)n(C8CCCC8)c7n6)nc5)CC4)C3)C2)n1 (centres unmarked) [CPD-153, 2-((6-(2-(4-(6-((6-acetyl-8-cyclopentyl-5-methyl-7-oxo-7,8-dihydropyrido[2,3-d]pyrimidin-2-yl)amino)pyridin-3-yl)piperazin-1-yl)acetamido)spiro[3.3]heptan-2-yl)amino)-N-(1-methyl-1H-pyrazol-5-yl)-6-(methylamino)nicotinamide]
< 30	< 30	CNc1ccc(C(=O)Nc2cccc(C3CC3)n2)c(NC[C@H]2CC[C@H](NC(=O)CN3CCN(c4ccc(Nc5ncc6c(C)c(C(C)=O)c(=O)n(C7CCCC7)c6n5)nc4)CC3)CC2)n1 [CPD-154, 2-(((trans-4-(2-(4-(6-((6-acetyl-8-cyclopentyl-5-methyl-7-oxo-7,8-dihydropyrido[2,3-d]pyrimidin-2-yl)amino)pyridin-3-yl)piperazin-1-yl)acetamido)cyclohexyl)methyl)amino)-N-(6-cyclopropylpyridin-2-yl)-6-(methylamino)nicotinamide]
50 to 80	50 to 80	CNc1ccc(C(=O)Nc2ccc(N(C)C)nn2)c(NC2CC(CCCC(=O)N3CCN(c4ccc(Nc5ncc6c(C)c(C(C)=O)c(=O)n(C7CCCC7)c6n5)nc4)CC3)C2)n1 (centres unmarked) [CPD-156, 2-((3-(4-(4-(6-((6-acetyl-8-cyclopentyl-5-methyl-7-oxo-7,8-dihydropyrido[2,3-d]pyrimidin-2-yl)amino)pyridin-3-yl)piperazin-1-yl)-4-oxobutyl)cyclobutyl)amino)-N-(6-(dimethylamino)pyridazin-3-yl)-6-(methylamino)nicotinamide]
< 30	50 to 80	CNc1ccc(C(=O)Nc2ccon2)c(NC2CC3(CC(NC(=O)CN4CCN(c5ccc(Nc6ncc7c(C)c(C(C)=O)c(=O)n(C8CCCC8)c7n6)nc5)CC4)C3)C2)n1 (centres unmarked) [CPD-159, 2-((6-(2-(4-(6-((6-acetyl-8-cyclopentyl-5-methyl-7-oxo-7,8-dihydropyrido[2,3-d]pyrimidin-2-yl)amino)pyridin-3-yl)piperazin-1-yl)acetamido)spiro[3.3]heptan-2-yl)amino)-N-(isoxazol-3-yl)-6-(methylamino)nicotinamide]
50 to 80	> 80	CNc1ccc(C(=O)Nc2cc(C)on2)c(NC2CC3(CC(NC(=O)CN4CCN(c5ccc(Nc6ncc7c(C)c(C(C)=O)c(=O)n(C8CCCC8)c7n6)nc5)CC4)C3)C2)n1 (centres unmarked) [CPD-160, 2-((6-(2-(4-(6-((6-acetyl-8-cyclopentyl-5-methyl-7-oxo-7,8-dihydropyrido[2,3-d]pyrimidin-2-yl)amino)pyridin-3-yl)piperazin-1-yl)acetamido)spiro[3.3]heptan-2-yl)amino)-6-(methylamino)-N-(5-methylisoxazol-3-yl)nicotinamide]
50 to 80	> 80	CNc1ccc(C(=O)Nc2cccc(OC)n2)c(NC2CC3(CC(NC(=O)CN4CCN(c5ccc(Nc6ncc7c(C)c(C(C)=O)c(=O)n(C8CCCC8)c7n6)nc5)CC4)C3)C2)n1 (centres unmarked) [CPD-161, 2-((6-(2-(4-(6-((6-acetyl-8-cyclopentyl-5-methyl-7-oxo-7,8-dihydropyrido[2,3-d]pyrimidin-2-yl)amino)pyridin-3-yl)piperazin-1-yl)acetamido)spiro[3.3]heptan-2-yl)amino)-N-(6-methoxypyridin-2-yl)-6-(methylamino)nicotinamide]
50 to 80	50 to 80	CNc1ccc(C(=O)Nc2cccc(C3CC3)n2)c(NC2CC(CNC(=O)CN3CCN(c4ccc(Nc5ncc6c(C)c(C(C)=O)c(=O)n(C7CCCC7)c6n5)nc4)CC3)C2)n1 (centres unmarked) [CPD-162, 2-((3-((2-(4-(6-((6-acetyl-8-cyclopentyl-5-methyl-7-oxo-7,8-dihydropyrido[2,3-d]pyrimidin-2-yl)amino)pyridin-3-yl)piperazin-1-yl)acetamido)methyl)cyclobutyl)amino)-N-(6-cyclopropylpyridin-2-yl)-6-(methylamino)nicotinamide]
50 to 80	50 to 80	[2H]C([2H])([2H])Nc1ccc(C(=O)Nc2cccc(C3CC3)n2)c(NC2CC3(CC(NC(=O)CN4CCN(c5ccc(Nc6ncc7c(C)c(C(C)=O)c(=O)n(C8CCCC8)c7n6)nc5)CC4)C3)C2)n1 (centres unmarked) [CPD-163, 2-((6-(2-(4-(6-((6-acetyl-8-cyclopentyl-5-methyl-7-oxo-7,8-dihydropyrido[2,3-d]pyrimidin-2-yl)amino)pyridin-3-yl)piperazin-1-yl)acetamido)spiro[3.3]heptan-2-yl)amino)-N-(6-cyclopropylpyridin-2-yl)-6-((methyl-d3)amino)nicotinamide]
50 to 80	> 80	CNc1ccc(C(=O)Nc2ccc(N(C)C)nn2)c(NC2CC(COCC(=O)N3CCN(c4ccc(Nc5ncc6c(C)c(C(C)=O)c(=O)n(C7CCCC7)c6n5)nc4)CC3)C2)n1 (centres unmarked) [CPD-164, 2-((3-((2-(4-(6-((6-acetyl-8-cyclopentyl-5-methyl-7-oxo-7,8-dihydropyrido[2,3-d]pyrimidin-2-yl)amino)pyridin-3-yl)piperazin-1-yl)-2-oxoethoxy)methyl)cyclobutyl)amino)-N-(6-(dimethylamino)pyridazin-3-yl)-6-(methylamino)nicotinamide]
50 to 80	50 to 80	CNc1ccc(C(=O)Nc2ccc(N(C)C)nn2)c(NC2CC(CNC(=O)N3CCN(c4ccc(Nc5ncc6c(C)c(C(C)=O)c(=O)n(C7CCCC7)c6n5)nc4)CC3)C2)n1 (centres unmarked) [CPD-166, 4-(6-((6-acetyl-8-cyclopentyl-5-methyl-7-oxo-7,8-dihydropyrido[2,3-d]pyrimidin-2-yl)amino)pyridin-3-yl)-N-((3-((3-((6-(dimethylamino)pyridazin-3-yl)carbamoyl)-6-(methylamino)pyridin-2-yl)amino)cyclobutyl)methyl)piperazine-1-carboxamide]
50 to 80	> 80	CNc1ccc(C(=O)Nc2ccc(N(C)C)nn2)c(NC2CC(OCC(=O)N3CCN(c4ccc(Nc5ncc6c(C)c(C(C)=O)c(=O)n(C7CCCC7)c6n5)nc4)CC3)C2)n1 (centres unmarked) [CPD-168, 2-((3-(2-(4-(6-((6-acetyl-8-cyclopentyl-5-methyl-7-oxo-7,8-dihydropyrido[2,3-d]pyrimidin-2-yl)amino)pyridin-3-yl)piperazin-1-yl)-2-oxoethoxy)cyclobutyl)amino)-N-(6-(dimethylamino)pyridazin-3-yl)-6-(methylamino)nicotinamide]

Source: US20260297081A1, “COMPOUNDS AND METHODS OF TREATING CANCERS” (Cullgen Inc., priority 2023, published 2026)
